# Test results as given in a melting point compilation (Tetko et al.; mined from patent text by program, amines drawn as free bases though some values may be those of a salt).
row,melting point [°C],SMILES
1,297 to 299,CCOc1ccc(/C=C/c2nc3c([nH]2)c(=O)n(CC)c(=O)n3CC)cc1
2,190 to 192,O=C(O)c1ccc(OCCCCCCc2ccc3cc(O)c(O)cc3c2)cc1O
3,146,CC(C)(C)c1cc(SC(=S)NN)cc(C(C)(C)C)c1O
4,169 to 174,CNC(=O)c1ccccc1Nc1nc(Nc2ccc3c(n2)CCCCS3)ncc1Cl
5,> 140,COCC1(OP(=O)(O)O)CCN(c2c(F)cc(N3C[C@H](CNC(C)=O)OC3=O)cc2F)CC1
6,200,Cc1c(Cl)ccc2c1[nH]c1c(C(=O)NO)cccc12
7,269,O=C1c2ccc(NC(=O)C3CCCCC3)cc2C(=O)c2cc(NC(=O)C3CCCCC3)ccc21
8,52,CCCCCOc1ccc(C(=O)OC(C)C(C)OC(=O)c2ccc(OCCCCC)cc2)cc1 (configuration not stated)
9,81 to 83,O=C(O)C1=Cc2c(F)cccc21
10,168 to 172,CS(=O)(=O)c1ccc(C[C@@H](NC(=O)OCc2ccccc2)[C@H](O)C(=O)O)cc1
11,109 to 112,COc1cc(OCCN(C)C)ccc1/C=C/c1cc(/C=C/c2ccc3cc[nH]c3c2)[nH]n1
12,112 to 114,CCn1c(=O)n(CCCCC(C)(C)O)c(=O)c2[nH]cnc21
13,80 to 82,C=CCC(CC)(C(=O)c1ccc(OCCO)cc1)N(C)C (configuration not stated)
14,203 to 204,CCCCCCCCCCCCS(=O)(=O)Nc1cc(-c2nc3cc(Cl)c(Cl)cc3[nH]2)ccc1OC
15,120 to 123,CSc1nccc(-c2cc(C)ccc2N)n1
16,155 to 165,NC(=S)NN=C(COC(=O)Nc1ccccc1)c1ccccc1
17,247,CC(=O)N1CCN(C2CCN(c3ccc(NC(=O)c4cnn(-c5ccc(Cl)cc5)c4C)cc3C#N)CC2)CC1
18,107 to 108,CCOc1c(OC)cc(C(=O)OC)c(-c2c(C(=O)OC)cc(OC)c3c2OCO3)c1OCC
19,> 230,Cc1cc(=O)n(-c2cc3c(cc2F)OC(CC#N)C(=O)N3)c(=O)[nH]1 (configuration not stated)
20,118 to 119,O=C1NCC(Cc2ccc(Oc3ccccc3)cc2)O1 (configuration not stated)
21,> 250,O=C(O)C1=CSC2C(=Cc3ccc4nc5n(c4c3)CCCS5)C(=O)N12 (configuration not stated)
22,189 to 190,CC(C)n1nc(-c2sc(NC(=O)CN3CCCCC3)nc2-c2ccccc2)ccc1=O
23,129 to 131,COC(=O)Cc1coc2cc(C(=O)NC(C(=O)NCc3ccccc3)c3ccccc3)ccc12 (configuration not stated)
24,73,COc1cc(CCC(=O)C2=C(Cl)CCC2)cc(OS(=O)(=O)c2ccc(C)cc2)c1OC
25,224,CN1CCn2c(-c3ccc(F)c(-c4ccc(F)cc4C#N)c3)cnc2C1=O
26,59 to 61,Clc1ccc(OCc2ccccc2)c(OCC2CO2)c1Cl (configuration not stated)
27,128 to 130,CC(=O)Oc1ccc(C(=O)Oc2ccc(OC(=O)c3ccc(OC(C)=O)cc3)c(C)c2)cc1

row,melting point [°C],SMILES
1,272,Nc1scc2c1C(=O)c1cc(Cl)c(Cl)cc1-2
2,264 to 269,Cc1c[nH]c(=O)nc1N
3,90 to 92,O=C1CN(CCCOc2ccc(NC(=O)c3cc(F)cc(N4CCCCC4)c3)c3ccccc23)CCN1
4,57 to 59,CCOC(=O)COc1c(CO)c(C(F)(F)F)nn1C
5,126 to 135,Cc1cc(N)cc(C)c1Oc1ccc(Cl)c2c1CCCC2
6,162 to 163,CCS(=O)c1nsc(NC(=O)N(C)C)c1C#N (configuration not stated)
7,210,COC(=O)c1cc(C(=O)c2c(C)c(NC(=O)c3cccc(OC(C)=O)c3)c3ccccn23)ccc1N
8,143 to 145,O=[N+]([O-])c1ccc(CCN2CCN(c3ccc([N+](=O)[O-])cc3)CC2)cc1
9,126 to 128,Nc1cccc(C2=NCCO2)c1
10,119 to 123,O=C(NC1CN(C(C(=O)O)c2ccc(OC(=O)c3ccccc3)cc2)C1=O)C(=NOC(=O)c1ccccc1)c1ccccc1 (configuration not stated)
11,106 to 108,COc1ccccc1CN(CC(=O)OC(C)(C)C)S(=O)(=O)c1ccc2c(Cl)cnc(Cl)c2c1
12,210 to 212,CCc1nc2c(N)nc3cc(CCC(=O)N4CCSC4)ccc3c2n1CC(C)(C)O
13,180 to 185,CCn1c(=O)nc(C(C)C)c2cc3c(cc21)OCO3
14,240 to 242,O=C(Nc1n[nH]c(=S)s1)N[C@@H](Cc1ccc(F)cc1)C(=O)N1CCN(c2ccccn2)CC1
15,74,CC(N=c1cccccc1NC(C)c1ccccc1)c1ccccc1 (configuration not stated)
16,248 to 250,CC(NC1CCc2ccccc21)C(=O)O (configuration not stated)
17,> 220,NC(=O)Nc1cc(Oc2ncccc2C(F)(F)F)c(Cl)cc1F
18,122,CC(=CC(=O)c1ccc(C(F)(F)F)cc1[N+](=O)[O-])N(C)C
19,187 to 189,N#CCC(=O)c1nn(-c2ccccc2)c2c1COc1c(CN3CCOCC3)cc(F)cc1-2
20,105 to 106,CC(C)(C)OC(=O)N[C@H](CC(=O)OCc1ccccc1)C(=O)N[C@H](COC(=O)OCc1ccccc1)c1ccccc1
21,146 to 148,O=C(CCCCCl)c1cccc2cc3c(C(=O)CCCCCl)cccc3cc12
22,76 to 78,O=[N+]([O-])c1cc(Cl)ncc1CCc1ccccc1
23,155 to 170,CCc1cc(OCc2ccc(-c3ccccc3-c3nnnn3-c3ccncc3)cc2)c2ccccc2n1
24,300 to 304,O=C(O)c1cn2c3c(c(Cl)cc(Cl)c3c1=O)CCC2
25,83,COc1ccc(N=C(C#Cc2ccccc2OC)N2CCN(Cc3ccc(C)cc3)CC2)cc1
26,90 to 91,CC1(C)CCC(C)(C)c2cc(-c3cc(-c4ccc(C(=O)OCc5ccccc5)cc4)ccc3O)ccc21
27,227 to 229,Cc1nnc2nc(-c3ccccc3F)cnn12

# The remaining lines, values behind:
row,SMILES,melting point [°C]
1,COc1ccc(C(=O)Nc2ccccc2)cc1NCc1ccc([N+](=O)[O-])c(O)c1,140 to 143
2,CN(C(C)(C)C)S(=O)(=O)c1cccnc1SCc1ccccc1,92 to 94
3,CC(C)NC(=S)N1CCc2[nH]cnc2C1C1CCCCC1 (configuration not stated),218
4,COc1cc(C)nc(Nc2ccc(Cl)cc2)n1,101 to 103
5,COc1ccc(C2=CCN(CCC(O)c3ccc(C#N)cc3)CC2)cc1 (configuration not stated),144 to 145
6,O=C(O)c1cnn(CCCCN2CCN(c3ncccn3)CC2)c1,104 to 105
7,CC(=O)OC[C@H]1CCn2c(c(C3=C(c4cn(C)c5ccccc45)C(=O)NC3=O)c3ccccc32)C1,238 to 241
8,COc1ccc(C#Cc2cc(Cl)cc3c2OC(CC(F)(F)F)C(C(=O)O)=C3)cc1 (configuration not stated),218 to 219
9,CCOC(=O)c1cnn2c1nc(S)c1cnc3c(cnn3CC)c12,238 to 240
10,Cc1nnc(-c2cc3c(OCCCN4CCC(c5ccc6c(c5)OCO6)CC4)cccc3o2)o1,125 to 127
11,CC(=O)CCC(=O)c1ccc(S(C)(=O)=O)cc1,132 to 133
12,O=C(Nc1ccc(-n2nc(C(F)(F)F)cc2C(F)(F)F)cc1)c1cc(Cl)cnc1Cl,228 to 229
13,CC(C)n1nc(-c2nc(C#N)c(N)nc2-c2ccccc2)ccc1=O,231 to 233
14,N#Cc1ccc(-c2ccc(C(CCC(=O)O)=NO)cc2)cc1,157 to 159
15,CC(=O)NCc1ccc(CN2CCN(c3ccccc3)CC2)cc1,135 to 136
16,COC(OC)C(CC(=O)O)C(C)(C)S(=O)(=O)c1ccc(C)cc1 (configuration not stated),144
17,CCOC(=O)Cc1sc(C(C)(C)c2c(Cl)cc(-n3ncc(=O)[nH]c3=O)cc2Cl)nc1-c1ccccc1,148
18,CN1CCN(c2ncc3c(=O)c(C(=O)O)cn(C4CC4)c3n2)CC1,209 to 210
19,CCCCOC(=O)CN1CCC(NC(=O)OC(C)(C)C)CC1,116
20,O=C(O)Cc1cc2c3ccccc3[nH]c(=O)n2n1,253 to 254
21,CC(=O)Nc1ccc(S(=O)(=O)Nc2ccc(S(=O)(=O)C=CC#N)cc2)cc1,204 to 205
22,O=C1CCN(c2nc(=O)c3cccnc3s2)CC1,222 to 225

row,SMILES,melting point [°C]
1,Cc1cnc(C(=O)O)c(-c2ccc(Cl)c(C(=O)NCC34CC5CC(CC(C5)C3)C4)c2)c1,125 to 130
2,C[C@@H](N[C@@H](Cc1c[nH]c2ccccc12)C(=O)O)[C@H](NC(=O)[C@@H](N)CC(N)=O)C(=O)O,65 to 70
3,COc1ccc2c(c1)C13CCN(C)C(C2)C1(OC)CCC(=O)C3 (configuration not stated),152 to 156
4,C[C@H]1OC(=O)[C@@H]2C=C3CCCC[C@H]3[C@H](O)[C@H]12,156 to 157
5,CCOc1ccccc1CN1CCC(=O)C(C(c2ccc(F)cc2)c2ccc(F)cc2)C1 (configuration not stated),137 to 138
6,CN(C(=O)Cc1ccccc1)c1nn(C)c(-c2ccc(F)cc2)c1-c1ccncc1,170 to 171
7,CCC(=O)Nc1ccc(-c2ccnc3c(C(=O)c4ccccc4)cnn23)cc1,211 to 213
8,CCCCNC(=O)CC(=O)Nc1ccc(Br)cc1C,123 to 125
9,Cc1nc2cc(-n3cccc3)ccc2s1,91 to 96
10,CC1(C)C(=O)Oc2ccc3ccc(Cn4cnnc4)cc3c21,256 to 257
11,CC1(C)OC(c2ccc(S(N)(=O)=O)c(Br)c2)=C(c2ccccc2)C1=O,128 to 132
12,C=CCC(C)(C)CNc1cc(N2CCNCC2)nc(NCC(C)(C)CC=C)n1,72 to 84
13,CC1(C)CC(=NO)c2cc(-c3ccc(Br)cc3)ccc2O1,166 to 170
14,Cc1cc(-c2nnn(C)n2)cc(C)c1OCCCCc1cc2cccnc2[nH]1,147 to 150
15,O=C(CCl)NC[C@@H]1CN2C(=O)C[C@H]2O1 (racemic),65 to 66.4
16,CC(C)COc1ccc(C(=O)N/C(=C\c2ccc(OCC(F)(F)F)cc2)C(=O)NCCO)cc1,176 to 178
17,CCCN(CCC)C1Cc2cc3c(cc2C1)C(=O)N(Cc1ccccn1)C3=O,130 to 135
18,CCC1(C)CCCNC1=O (configuration not stated),67 to 69
19,Cc1c(Cl)cccc1S(=O)(=O)Nc1ccc2nc(C)n(CCO)c2c1,213 to 214
20,O=C(c1ccccc1C(F)(F)F)N1CCCN(CC2=Nc3cccc4c(=O)[nH]nc(c34)N2)CC1,140 to 142
21,CC1=C(C(=O)OCC(C)C)C(c2cccc([N+](=O)[O-])c2)c2c(N)nc(N)nc2N1 (configuration not stated),130
